# From ChEMBL document CHEMBL5729404, “Heterocyclic RIP1 kinase inhibitors” (2022)
# Molecular target: T1, Receptor-interacting serine/threonine-protein kinase 1 (Homo sapiens, UniProt Q13546)
# T1 sequence (Q13546 whole entry): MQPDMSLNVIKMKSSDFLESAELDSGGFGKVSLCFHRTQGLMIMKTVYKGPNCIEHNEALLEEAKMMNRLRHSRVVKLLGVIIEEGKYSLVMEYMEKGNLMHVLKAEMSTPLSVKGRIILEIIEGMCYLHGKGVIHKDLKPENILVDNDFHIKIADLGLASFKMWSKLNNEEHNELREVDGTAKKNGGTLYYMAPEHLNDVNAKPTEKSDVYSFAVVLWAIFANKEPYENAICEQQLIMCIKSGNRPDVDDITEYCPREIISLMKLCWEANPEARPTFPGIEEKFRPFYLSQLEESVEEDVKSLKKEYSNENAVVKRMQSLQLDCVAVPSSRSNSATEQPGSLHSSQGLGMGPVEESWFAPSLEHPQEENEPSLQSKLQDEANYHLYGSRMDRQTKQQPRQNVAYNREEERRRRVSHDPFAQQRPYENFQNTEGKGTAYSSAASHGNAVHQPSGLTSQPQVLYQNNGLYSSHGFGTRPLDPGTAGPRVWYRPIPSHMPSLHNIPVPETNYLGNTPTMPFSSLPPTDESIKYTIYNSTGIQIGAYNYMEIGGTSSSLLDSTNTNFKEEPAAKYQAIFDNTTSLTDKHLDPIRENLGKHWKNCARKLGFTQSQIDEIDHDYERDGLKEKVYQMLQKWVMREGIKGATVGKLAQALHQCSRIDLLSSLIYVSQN
# Test: Adding 5 μl of ADP-Glo™ terminated the reaction.
row,SMILES,IC50
1,CN1C(=O)[C@@H](NC(=O)n2cc(Cc3cccnc3)cn2)COc2ccc(Br)cc21,8.3 nM
2,Cc1cccc(Cc2cnn(C(=O)N[C@H]3COc4ccc(Br)cc4N(C)C3=O)c2)n1,104 nM
3,CN1C(=O)[C@@H](NC(=O)n2cc(Cc3ccccn3)cn2)COc2ccc(Br)cc21,65.2 nM
4,CN1C(=O)[C@@H](NC(=O)n2cc(Cc3ccc(F)nc3)cn2)COc2ccc(Br)cc21,40.3 nM
5,CN1C(=O)[C@@H](NC(=O)n2cc(Cc3cccnn3)cn2)COc2ccc(Br)cc21,830 nM
6,CN1C(=O)[C@@H](NC(=O)n2cc(Cc3cccc(C(F)(F)F)n3)cn2)COc2ccc(Br)cc21,168 nM
7,CN1C(=O)[C@@H](NC(=O)n2cc(Cc3ccncc3)cn2)COc2ccc(Br)cc21,102 nM
8,CN1C(=O)[C@@H](NC(=O)n2cc(Cc3cccc(F)n3)cn2)COc2ccc(Br)cc21,21.7 nM
